Measurements taken from article doi:10.1101/2020.08.07.241463v2 (biorxiv, 2020).
pKd: −log10 of the molar value.

Target: T1, OpuAC (free / soluble substrate-binding domain) (Lactococcus lactis, UniProt Q7DAU8, N367C/N423C)
T1 sequence (Q7DAU8 320-573 N367C/N423C): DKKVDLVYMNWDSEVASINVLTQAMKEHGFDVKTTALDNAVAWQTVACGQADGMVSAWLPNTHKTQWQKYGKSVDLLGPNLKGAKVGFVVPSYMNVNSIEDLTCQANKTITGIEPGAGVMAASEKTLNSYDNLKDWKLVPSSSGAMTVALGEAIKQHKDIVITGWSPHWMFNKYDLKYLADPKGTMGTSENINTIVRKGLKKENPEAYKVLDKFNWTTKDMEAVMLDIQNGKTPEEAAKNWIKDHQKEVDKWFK
Test: smFRET

SMILES: C[N+](C)(C)CC(=O)[O-] [GB, glycine betaine]
- pKd: ~5.22
